Measurements as given in the NIST ThermoML archive (doi:10.1021/acs.jced.7b01030).
“And” between values parts separate entries of the source, which are not always exact repeats. Equal entries are not always repeated. ± gives the expanded uncertainty stated by the source.

Conditions: Liquid; for self diffusion coefficient: NMR spin-echo technique; for viscosity: Falling or rolling sphere viscometry; for mass density: Vibrating tube method

`OCC(F)(F)F` [2,2,2-trifluoroethanol] gave a self diffusion coefficient (253.24 K, 100 kPa) of 1.33e-10 m2/s, a self diffusion coefficient (258.45 K, 100 kPa) of 1.68e-10 m2/s and a self diffusion coefficient (258.49 K, 100 kPa) of 1.68e-10 m2/s. For the same compound, the viscosity (263.15 K, 100 kPa) was 5.502 ± 0.23 mPa·s and 5.485 ± 0.23 mPa·s, the viscosity (263.15 K, 9900 kPa) was 6.125 ± 0.25 mPa·s and the viscosity (263.15 K, 10000 kPa) was 6.134 ± 0.25 mPa·s. It also gave a viscosity (263.15 K, 24500 kPa) of 7.159 ± 0.29 mPa·s, a viscosity (263.15 K, 24600 kPa) of 7.168 ± 0.29 mPa·s and a viscosity (263.15 K, 50500 kPa) of 9.212 ± 0.38 mPa·s. For the same compound, the viscosity (263.15 K, 50600 kPa) was 9.203 ± 0.38 mPa·s, the viscosity (263.15 K, 75500 kPa) was 11.52 ± 0.47 mPa·s and 11.51 ± 0.47 mPa·s and the viscosity (263.15 K, 100200 kPa) was 14.28 ± 0.58 mPa·s. For the same compound, the viscosity (263.15 K, 101000 kPa) was 14.38 ± 0.59 mPa·s, the viscosity (263.15 K, 131600 kPa) was 18.4 ± 0.75 mPa·s and the viscosity (263.15 K, 132200 kPa) was 18.53 ± 0.76 mPa·s. The self diffusion coefficient (263.37 K, 100 kPa) was 2.05e-10 m2/s, the self diffusion coefficient (263.39 K, 100 kPa) was 2.06e-10 m2/s and the viscosity (268.15 K, 100 kPa) was 4.517 ± 0.19 mPa·s and 4.513 ± 0.19 mPa·s. For the same compound, the self diffusion coefficient (272.82 K, 79000 kPa) was 1.66e-10 m2/s, the self diffusion coefficient (272.84 K, 25700 kPa) was 2.48e-10 m2/s and the self diffusion coefficient (272.86 K, 100 kPa) was 3.06e-10 m2/s. It also gave a self diffusion coefficient (272.87 K, 100 kPa) of 3.06e-10 m2/s, a self diffusion coefficient (272.9 K, 200500 kPa) of 7.6e-11 m2/s and a self diffusion coefficient (272.91 K, 299000 kPa) of 4.23e-11 m2/s. It also gave a self diffusion coefficient (272.93 K, 249000 kPa) of 5.7e-11 m2/s, a self diffusion coefficient (272.99 K, 150000 kPa) of 1.04e-10 m2/s and a self diffusion coefficient (273.09 K, 98000 kPa) of 1.46e-10 m2/s. The viscosity (273.15 K, 100 kPa) was 3.798 ± 0.15 mPa·s [middle of 5 runs], the mass density (273.15 K, 100 kPa) was 1424.26 ± 0.64 kg/m3 and the viscosity (273.15 K, 10400 kPa) was 4.226 ± 0.17 mPa·s. The viscosity (273.15 K, 10500 kPa) was 4.224 ± 0.17 mPa·s, the viscosity (273.15 K, 25500 kPa) was 4.909 ± 0.2 mPa·s and 4.905 ± 0.2 mPa·s and the viscosity (273.15 K, 50500 kPa) was 6.179 ± 0.25 mPa·s and 6.166 ± 0.25 mPa·s. It also gave a viscosity (273.15 K, 75000 kPa) of 7.57 ± 0.47 mPa·s, a viscosity (273.15 K, 75500 kPa) of 7.582 ± 0.65 mPa·s and a viscosity (273.15 K, 99800 kPa) of 9.373 ± 0.98 mPa·s. The viscosity (273.15 K, 100300 kPa) was 9.375 ± 0.98 mPa·s, the viscosity (273.15 K, 125600 kPa) was 11.37 ± 0.46 mPa·s and 11.45 ± 0.47 mPa·s and the viscosity (273.15 K, 125700 kPa) was 11.39 ± 0.46 mPa·s. For the same compound, the viscosity (273.15 K, 150300 kPa) was 13.73 ± 0.56 mPa·s, the viscosity (273.15 K, 150700 kPa) was 13.79 ± 0.56 mPa·s and the viscosity (273.15 K, 176200 kPa) was 16.53 ± 0.67 mPa·s. The viscosity (273.15 K, 176400 kPa) was 16.61 ± 0.68 mPa·s, the viscosity (273.15 K, 201100 kPa) was 19.6 ± 0.8 mPa·s and 19.51 ± 0.79 mPa·s and the viscosity (273.15 K, 233500 kPa) was 24.25 ± 0.99 mPa·s. The viscosity (273.15 K, 233700 kPa) was 24.29 ± 0.99 mPa·s, the self diffusion coefficient (273.25 K, 100 kPa) was 3.07e-10 m2/s and the self diffusion coefficient (273.25 K, 50000 kPa) was 2.04e-10 m2/s. The self diffusion coefficient (273.8 K, 100 kPa) was 3.3e-10 m2/s, the viscosity (278.15 K, 100 kPa) was 3.311 ± 0.14 mPa·s and 3.305 ± 0.14 mPa·s and the mass density (278.15 K, 100 kPa) was 1416.08 ± 0.64 kg/m3. The self diffusion coefficient (278.59 K, 100 kPa) was 3.94e-10 m2/s, the self diffusion coefficient (278.63 K, 100 kPa) was 3.87e-10 m2/s and the viscosity (283.15 K, 100 kPa) was 2.746 ± 0.11 mPa·s and 2.749 ± 0.11 mPa·s. For the same compound, the mass density (283.15 K, 100 kPa) was 1407.84 ± 0.64 kg/m3 and 1407.85 ± 0.64 kg/m3, the viscosity (288.15 K, 100 kPa) was 2.363 ± 0.096 mPa·s and 2.368 ± 0.097 mPa·s and the mass density (288.15 K, 100 kPa) was 1399.56 ± 0.63 kg/m3. For the same compound, the self diffusion coefficient (288.53 K, 100 kPa) was 5.41e-10 m2/s, the self diffusion coefficient (288.56 K, 100 kPa) was 5.3e-10 m2/s and the viscosity (293.15 K, 100 kPa) was 2.077 ± 0.085 mPa·s [middle of 4 runs]. The mass density (293.15 K, 100 kPa) was 1391.18 ± 0.63 kg/m3 and 1391.19 ± 0.63 kg/m3, the viscosity (298.15 K, 100 kPa) was 1.781 ± 0.073 mPa·s [middle of 7 runs] and the mass density (298.15 K, 100 kPa) was 1382.73 ± 0.63 kg/m3 and 1382.71 ± 0.63 kg/m3. The viscosity (298.15 K, 10200 kPa) was 1.98 ± 0.081 mPa·s and 1.981 ± 0.081 mPa·s, the viscosity (298.15 K, 25400 kPa) was 2.267 ± 0.092 mPa·s and 2.264 ± 0.092 mPa·s and the viscosity (298.15 K, 49900 kPa) was 2.755 ± 0.11 mPa·s. For the same compound, the viscosity (298.15 K, 50200 kPa) was 2.773 ± 0.11 mPa·s, the viscosity (298.15 K, 74900 kPa) was 3.317 ± 0.14 mPa·s and the viscosity (298.15 K, 75100 kPa) was 3.314 ± 0.14 mPa·s. For the same compound, the viscosity (298.15 K, 100400 kPa) was 3.929 ± 0.16 mPa·s, the viscosity (298.15 K, 100600 kPa) was 3.938 ± 0.16 mPa·s and the viscosity (298.15 K, 125200 kPa) was 4.612 ± 0.19 mPa·s. It also gave a viscosity (298.15 K, 125400 kPa) of 4.61 ± 0.19 mPa·s, a viscosity (298.15 K, 150100 kPa) of 5.347 ± 0.22 mPa·s and a viscosity (298.15 K, 175000 kPa) of 6.198 ± 0.25 mPa·s. The viscosity (298.15 K, 175200 kPa) was 6.197 ± 0.25 mPa·s, the viscosity (298.15 K, 197500 kPa) was 6.965 ± 0.49 mPa·s and the viscosity (298.15 K, 197800 kPa) was 6.993 ± 0.52 mPa·s. It also gave a viscosity (298.15 K, 200700 kPa) of 7.21 ± 0.38 mPa·s, a viscosity (298.15 K, 201700 kPa) of 7.297 ± 0.8 mPa·s and a viscosity (298.15 K, 224400 kPa) of 8.254 ± 0.63 mPa·s. It also gave a viscosity (298.15 K, 226100 kPa) of 8.33 ± 0.57 mPa·s, a viscosity (298.15 K, 256900 kPa) of 9.931 ± 0.4 mPa·s and a viscosity (298.15 K, 258400 kPa) of 10.03 ± 0.41 mPa·s. It also gave a viscosity (298.15 K, 276700 kPa) of 10.98 ± 0.45 mPa·s, a viscosity (298.15 K, 277800 kPa) of 11.04 ± 0.45 mPa·s and a viscosity (298.15 K, 300600 kPa) of 12.3 ± 0.5 mPa·s. For the same compound, the viscosity (298.15 K, 301600 kPa) was 12.43 ± 0.51 mPa·s, the viscosity (298.15 K, 325400 kPa) was 13.99 ± 0.57 mPa·s and the viscosity (298.15 K, 326500 kPa) was 14.06 ± 0.57 mPa·s. The viscosity (298.15 K, 348800 kPa) was 15.77 ± 0.64 mPa·s, the viscosity (298.15 K, 351100 kPa) was 15.95 ± 0.65 mPa·s and the self diffusion coefficient (298.26 K, 100 kPa) was 6.91e-10 m2/s. The self diffusion coefficient (298.32 K, 100 kPa) was 6.96e-10 m2/s, the self diffusion coefficient (298.34 K, 100 kPa) was 7.21e-10 m2/s and the self diffusion coefficient (298.35 K, 100 kPa) was 7.06e-10 m2/s. For the same compound, the self diffusion coefficient (298.36 K, 100 kPa) was 6.95e-10 m2/s, the self diffusion coefficient (298.55 K, 100 kPa) was 6.99e-10 m2/s and the self diffusion coefficient (299.89 K, 25000 kPa) was 6.08e-10 m2/s. For the same compound, the self diffusion coefficient (299.91 K, 50000 kPa) was 5.11e-10 m2/s, the self diffusion coefficient (299.91 K, 72500 kPa) was 4.38e-10 m2/s and the self diffusion coefficient (299.92 K, 100 kPa) was 7.35e-10 m2/s. For the same compound, the self diffusion coefficient (299.92 K, 300000 kPa) was 1.32e-10 m2/s, the self diffusion coefficient (299.93 K, 98000 kPa) was 3.77e-10 m2/s and the self diffusion coefficient (299.93 K, 199000 kPa) was 2.14e-10 m2/s. It also gave a self diffusion coefficient (299.94 K, 149000 kPa) of 2.87e-10 m2/s, a self diffusion coefficient (299.94 K, 350000 kPa) of 1.09e-10 m2/s and a self diffusion coefficient (299.98 K, 250000 kPa) of 1.72e-10 m2/s. For the same compound, the self diffusion coefficient (300.4 K, 100 kPa) was 7.52e-10 m2/s and the viscosity (303.15 K, 100 kPa) was 1.574 ± 0.064 mPa·s and 1.565 ± 0.064 mPa·s.
